According to ChEMBL document CHEMBL1151551, “An acid-cleavable linker stable at neutral pH that releases doxorubicin at lysosomal pH” (Bioorg Med Chem Lett, 1993):

How the values were obtained:
[1] = species: Mus musculus; assay: The compound was evaluated for half life (release of DOX) […] at 37 degree Celsius at the pH 7.; assay type: ADME
[2] = species: Mus musculus; assay: The compound was evaluated for half life (release of DOX) […] at 37 degree Celsius at the pH 5.; assay type: ADME

Row | SMILES | T1/2 [1] [days] | T1/2 [2] [h]
1 | CCCCNC(=O)C1(C)CC(C)(C(=O)O)CC(C)(C(=O)NC2CC(O[C@H]3C[C@](O)(C(=O)CO)Cc4c(O)c5c(c(O)c43)C(=O)c3c(OC)cccc3C5=O)OC(C)C2O)C1 (some centres not stated) | > 160 | 90
2 | CCCCN(C)C(=O)C1(C)CC(C)(C(=O)O)CC(C)(C(=O)N(C(=O)C(F)(F)F)C2CC(O[C@H]3C[C@](O)(C(=O)CO)Cc4c(O)c5c(c(O)c43)C(=O)c3c(OC)cccc3C5=O)OC(C)C2O)C1 (some centres not stated) | > 174 | > 174
3 | COc1cccc2c1C(=O)c1c(O)c3c(c(O)c1C2=O)C[C@@](O)(C(=O)CO)C[C@@H]3OC1CC(NC(=O)C2(C)CC(C)(C(=O)O)CC(C)(C(=O)O)C2)C(O)C(C)O1 (some centres not stated) | – | 30
4 | COC(=O)C1(C)CC(C)(C(=O)O)CC(C)(C(=O)NC2CC(O[C@H]3C[C@](O)(C(=O)CO)Cc4c(O)c5c(c(O)c43)C(=O)c3c(OC)cccc3C5=O)OC(C)C2O)C1 (some centres not stated) | > 100 | 40
